Experimental data as given in patent US12565673B2, “Methods for the design of nonallosteric sirtuin activating compounds” (Chakrabarti Advanced Technology, LLC, priority 2020, dated 2026).
pKd: −log10 of the molar value.

Target: T1, hSirt3^102-399 (Homo sapiens, UniProt Q9NTG7)
T1 construct: hSirt3^102-399 was expressed in E. coli Arctic Express (DE3) cells; His-tag (only implied by the HisTrap / imidazole purification); made in house; host or cells: E. coli Arctic Express (DE3)
T1 sequence (Q9NTG7 102-399): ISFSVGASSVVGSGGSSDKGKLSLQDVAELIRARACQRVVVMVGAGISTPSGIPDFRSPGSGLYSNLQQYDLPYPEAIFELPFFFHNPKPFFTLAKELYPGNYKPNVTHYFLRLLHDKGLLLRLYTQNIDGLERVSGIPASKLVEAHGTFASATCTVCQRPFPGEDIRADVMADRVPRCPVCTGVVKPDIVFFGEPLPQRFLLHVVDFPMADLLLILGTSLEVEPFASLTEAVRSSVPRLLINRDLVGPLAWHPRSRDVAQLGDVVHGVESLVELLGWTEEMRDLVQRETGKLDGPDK
Experiment: hSirt3 ligand binding assay by microscale thermophoresis (MST)
Details: Sirt3.Ac-MnSOD complex (FIG. 9)
Method: The binding affinities of ligands to complexes in the catalytic mechanism of SIRT3/MnSOD peptide substrate were measured using microscale thermophoresis (MST; FIG. 9, FIG. 10).
Briefly, the protein conjugation was done in 1×PBS pH 7.4, 0.05% Pluronic F-127, and the labeled protein was buffer exchanged into 47 mM Tris-HCl pH 8.0, 129 mM NaCl, 2.5 mM KCl, 0.94 mM MgCl2, 5% DMSO, 0.05% Tween-20. We used 2 nM labeled hSirt3 and titrated with varying concentrations of the modulators in the absence and presence of various concentrations of substrates, products and intermediates. The thermophoresis was measured (excitation/emission 653/672 nm) using a Monolith NT. […] Dissociation constants (Kd) were determined using GraFit7 (Erithacus Software) by nonlinear fitting.

C=CCc1ccc(O)c(-c2ccc(O)c(CC=C)c2)c1 [HKL, 5, 3′-Diallyl-2, 4′-dihydroxybiphenyl]
pKd: > 5.00
